Test results reported in patent US20030073218A1, “High affinity inhibitors for target validation and uses thereof” (Princeton University, priority 1999, published 2003).
“Also recorded” adds a separate entry of the source. Like-named read-outs stand apart in the source and are kept apart here.

Tests used:
[1] = molecular target: T1, GST-XD4(V323A, I338A) (Rous sarcoma virus subgroup A, UniProt P00524, DEL77-225/I338A/V323A); assay: Autophosphorylation with radiolabeled nucleotide (autoradiogram); type: biochemical; conditions: FIG. 5C lane 4
T1 construct: mutant of the v-Src catalytic domain, (the XD4 fragment) were made as glutathione S-transferase (GST) fusion proteins; made in house; host or cells: E. coli (DH5a), pGEX-KT
Text: (§1) It is even more significant that the new substrate, [γ-^32P] […] FIG. 5C is an autoradiogram showing [γ-^32P]

[2] = test system: wild-type cellular kinase in murine lymphocyte lysates; assay: In vitro kinase reactions with radiolabeled nucleotide in murine lymphocyte lysates; type: biochemical; conditions: 100 μM radiolabeled nucleotide, 37° C., 10 min
Description: For this it is preferably that no wild-type kinase, including ser/thr specific kinase (which carry out the bulk of cellular phosphorylation, as only 0.03% of all phosphoamino acids are tyrosine) (65), substantially accept the synthetic substrate. To establish that [γ-^32P]
These assays were performed in a manner similar to the procedure set forth in Example 2, with the exception of the use of radiolabeled [γ-^32P] […] Proteins were separate by 12.5% SDS-PAGE. The gel was soaked in 10% acetic acid, 10% isopropanol for 1 h. after which it was dried in a gel dryer and exposed to Biomax MS film (Kodak # 111-1681) for 1 h.

[3] = molecular target: T2, GST-XD4 (Rous sarcoma virus subgroup A, UniProt P00524, DEL77-225); assay: Autophosphorylation with radiolabeled nucleotide (autoradiogram); type: biochemical; parameters: mutant of the v-Src catalytic domain, (the XD4 fragment) were made as glutathione S-transferase (GST) fusion proteins; made in house; host or cells: E. coli (DH5a), pGEX-KT; conditions: GST-XD4, FIG. 5C lane 3
Text: as §1

[4] = test system: protein tyrosine kinase in murine lymphocyte cell lysate (CF); assay: Screening of ATP analogs as kinase substrates in murine lymphocyte lysate (anti-phosphotyrosine immunoblot); type: biochemical; conditions: 100 uM nucleotide triphosphate, 37° C., 5 min
Description: Screening of Nucleotide Analogs: To identify compounds that would not be accepted as substrates by any existing cellular kinase (53), a panel of synthetic A*TP analogs were screened in a murine lymphocyte lysate (CF) rich in protein tyrosine kinase (13). The assays were performed using spleenocytes (8-30 week old male and female C57/B6 mice from the Princeton University Animal Facility) which were isolated and washed in RPMI-1640 medium containing 5% Bovine Calf Serum (BCS), 1% Hepes and DNAseI (1 μg/ml). Red cells were lysed at 4° C. by treatment with 17 mM tris ammonium chloride pH 7.2. The cells were hypotonically lysed on ice for 10 min. In 1 mM Hepes pH 7.4, 5 mM MgCl2, leupeptin (10 μg/ml), aprotinin (10 μg/ml) and 100 uM PMSF according to the method of Fukazawa et. al. (51). After vortexing and centrifuigation at 500 xg, the supernatant was collected. Cells were stored at 4° C. for 20 min. To attenuate the basal protein phosphorylation level, after which the buffer was adjusted to 20 mM Hepes pH 7.4, 10 mM MgCl2 and 1 mM NaF. Sodium vanadate (100 uM) was then added to inhibit the activity of phosphotyrosine phosphatases.
Each nucleotide triphosphate was added to a final concentration of 100 uM to 5×10^6 cell equivalents and incubated at 37° C. for 5 min. after which 4X Laemmli gel loading buffer was added to the cell lysate to quench the reaction. Proteins were separated by 12.5% SDS-PAGE and transferred to Protran BA85 (Schleicher-Schuell). The blot was probed with the anti-phosphotyrosine monoclonal antibody 4G10 (Upstate Biotechnology) and the bound antibody was detected via enhanced chemiluminescence (cat. 34080, Pierce) following treatment with HRP- coupled goat-anti-mouse antibody (VWR cat. 7101332) according to the manufacturer's instructions.
The cell lysate used includes the protein tyrosine kinase Src, Fyn, Lck, Lyn, Yes, Fgr, Hck, Zap, Syk, Btk, Blk, and other protein tyrosine kinase present in B and T lymphocytes, macrophages, and follicular dendritic cells (13). Molecular size standards (in kilodaltons) are indicated.

[5] = molecular target: T1, GST-XD4(V323A, I338A); type: biochemical
Description: (§2) Kinetic constants were determined by analysis of Lineweaver-Burk plots of the rate data (64).

[6] = molecular target: T2, GST-XD4; assay: biochemical; type: biochemical; parameters: mutant of the v-Src catalytic domain, (the XD4 fragment) were made as glutathione S-transferase (GST) fusion proteins; made in house; host or cells: E. coli (DH5a), pGEX-KT
Description: as §2

[7] = test system: GST-XD4(V323A, I338A); conditions: 100 μM analog, 10 μM [γ-32P] ATP
[8] = molecular target: T3, Cdc28-as1 · MBP-Clb2 (Saccharomyces cerevisiae, UniProt P00546, F88G); type: biochemical
T3 construct: made in house; host or cells: Sf9 insect cells, baculovirus, co-infected with Cak1-HA3 (Cdc28-as1-His6); bacteria (MBP-Clb2)
T3 sequence (P00546 whole entry F88G): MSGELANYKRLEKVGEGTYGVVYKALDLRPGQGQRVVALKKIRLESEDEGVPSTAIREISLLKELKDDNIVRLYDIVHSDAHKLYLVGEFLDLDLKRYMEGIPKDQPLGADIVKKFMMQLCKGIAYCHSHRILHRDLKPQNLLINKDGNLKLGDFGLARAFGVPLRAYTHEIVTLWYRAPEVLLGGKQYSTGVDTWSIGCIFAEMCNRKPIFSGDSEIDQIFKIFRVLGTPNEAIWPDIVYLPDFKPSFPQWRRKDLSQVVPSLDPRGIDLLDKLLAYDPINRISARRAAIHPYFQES
T3 sequence (P24869 whole entry, further chain): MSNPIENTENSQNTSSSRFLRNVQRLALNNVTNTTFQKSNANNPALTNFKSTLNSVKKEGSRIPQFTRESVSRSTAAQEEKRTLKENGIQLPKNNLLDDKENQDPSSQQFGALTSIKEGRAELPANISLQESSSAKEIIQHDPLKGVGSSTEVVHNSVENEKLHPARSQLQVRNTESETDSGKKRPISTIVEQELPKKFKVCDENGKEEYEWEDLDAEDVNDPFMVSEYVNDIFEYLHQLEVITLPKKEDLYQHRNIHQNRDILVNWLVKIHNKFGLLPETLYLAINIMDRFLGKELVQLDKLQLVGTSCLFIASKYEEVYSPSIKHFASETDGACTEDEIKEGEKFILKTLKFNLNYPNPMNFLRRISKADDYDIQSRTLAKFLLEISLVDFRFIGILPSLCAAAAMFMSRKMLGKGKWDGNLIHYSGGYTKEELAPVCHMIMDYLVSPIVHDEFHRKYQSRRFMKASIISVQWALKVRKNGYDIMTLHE

[9] = molecular target: T2, GST-XD4; conditions: read-out: KM for protein substrate RR-Src at saturated nucleotide
[10] = molecular target: wild-type Fyn (Homo sapiens, UniProt P06241); assay: Peptide phosphorylation assay, screening of inhibitors orthogonal to wild-type kinases; type: biochemical; conditions: read-out: IC50 for inhibition of wild-type Fyn
Sequence of wild-type Fyn (P06241 1-534 isoform P06241-2, species assumed): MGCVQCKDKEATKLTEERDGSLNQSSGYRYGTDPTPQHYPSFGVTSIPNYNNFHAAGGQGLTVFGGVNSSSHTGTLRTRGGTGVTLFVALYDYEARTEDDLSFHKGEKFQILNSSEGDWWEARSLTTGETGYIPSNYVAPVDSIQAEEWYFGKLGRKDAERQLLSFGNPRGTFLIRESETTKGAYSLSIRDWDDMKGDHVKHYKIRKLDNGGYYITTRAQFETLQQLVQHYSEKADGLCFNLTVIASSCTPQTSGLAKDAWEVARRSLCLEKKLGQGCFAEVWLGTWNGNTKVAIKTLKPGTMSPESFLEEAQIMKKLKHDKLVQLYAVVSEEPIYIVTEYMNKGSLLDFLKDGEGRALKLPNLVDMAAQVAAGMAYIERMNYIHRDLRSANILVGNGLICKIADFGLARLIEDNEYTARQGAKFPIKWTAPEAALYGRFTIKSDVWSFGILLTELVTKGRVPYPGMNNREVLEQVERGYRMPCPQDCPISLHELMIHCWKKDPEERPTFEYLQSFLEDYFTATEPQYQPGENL
Text: Screening of inhibitors which are orthogonal to wild-type kinases: To identify compounds that would not inhibit any existing cellular kinases, the panel of synthetic pyrazolo pyrimidine analogs (1-6) (FIG. 10) were screened against two closely related purified protein tyrosine kinases, v-Src and Fyn, in a peptide phosphorylation assay using [γ-^32P]

[11] = test system: WT v-Src transformed NIH3T3 cells; assay: Inhibition of v-Src in NIH3T3 fibroblasts (phosphotyrosine blot); type: cell-based, murine; conditions: 100 mM 3g, 12 hours
Description: Tyrosine phosphorylated proteins were visualized as in FIG. 20A.
Retroviral Infection of NIH 3T3 Fibroblasts: Genes encoding WT and I338G v-Src were transfected into a packaging cell line and NIH 3T3 fibroblasts were retrovirally infected using the pBabe retroviral vector and a puromycin ([…]) selectable marker as described (Shah, K., Liu, Y., Shokat, K. M., in preparation). WT and I338G v-Src transformed cells were cultured in DMEM/10% BCS containing […] puromycin).
After 12 hours, the cells were washed with PBS and lysed (lysis buffer: 1% Triton X-100, 50 mM tris pH 7.4, 2 mM EDTA, 150 mM NaCl, […], 2 mM sodium orthovanadate, 10 mg/mL leupeptin, 10 mg/mL apoprotin). The lysate was clarified by centrifugation at 13,000 rpm for 15 min. Lysate protein concentrations were normalized and equal volumes of the lysate were resolved electrophoretically and analyzed for phosphotyrosine content as described above.

[12] = molecular target: T4, PKA (Homo sapiens, UniProt P17612); assay: In Vitro Kinase Inhibition Assay; type: biochemical; conditions: at concentrations up to 300 mM
T4 construct: purchased Pierce
Text: PKA was purchased (Pierce) and used without further purification.

[13] = molecular target: T5, I338G v-Src (Rous sarcoma virus subgroup A, UniProt P00524, DEL77-225/I338G); assay: biochemical; type: biochemical
T5 construct: screened against the catalytic domain of the target kinase, I338G v-Src; made in house; host or cells: E. coli DH5a, pGEX-KT

[14] = test system: I338G v-Src transformed NIH3T3 fibroblasts; assay: Microscopy of cell morphology and polymerized actin; type: cell-based, murine; conditions: 100 mM 3g, 48 hours
Description: FIG. 21A show non-transformed NIH3T3 cells.
Microscopy: Non-transformed, WT v-Src transformed, and 1338G v-Src transformed NIH3T3 fibroblasts were grown in DMEM/10% BCS on tissue culture treated slides. V-Src expressing cells were treated with either 1.1% DMSO or […] 3g in 1.1% DMSO. After 48 hours cells were photographed at 400(magnification on an Nikon TMS light microscope. Immediately following light microscopy, the cells were fixed for 20 min in 3.7% formaldehyde/PBS and permeabilized for 60 sec in 0.2% Triton X-100(/PBS. Permeabilized cells were incubated with 200 ng/mL phalloidin-FITC/PBS for 20 min. Slides were rinsed with PBS and polymerized actin was visualized by fluorescence microscopy at 600( magnification on a Zeiss fluorescence microscope.

[15] = molecular target: T6, PKCd (Homo sapiens, UniProt Q05655); assay: In Vitro Kinase Inhibition Assay; type: biochemical; conditions: at concentrations up to 300 mM
T6 construct: 6-His; made in house; host or cells: Bac-to-Bac baculovirus expression system (pFastBac B vector)
T6 sequence (Q05655 whole entry, species assumed): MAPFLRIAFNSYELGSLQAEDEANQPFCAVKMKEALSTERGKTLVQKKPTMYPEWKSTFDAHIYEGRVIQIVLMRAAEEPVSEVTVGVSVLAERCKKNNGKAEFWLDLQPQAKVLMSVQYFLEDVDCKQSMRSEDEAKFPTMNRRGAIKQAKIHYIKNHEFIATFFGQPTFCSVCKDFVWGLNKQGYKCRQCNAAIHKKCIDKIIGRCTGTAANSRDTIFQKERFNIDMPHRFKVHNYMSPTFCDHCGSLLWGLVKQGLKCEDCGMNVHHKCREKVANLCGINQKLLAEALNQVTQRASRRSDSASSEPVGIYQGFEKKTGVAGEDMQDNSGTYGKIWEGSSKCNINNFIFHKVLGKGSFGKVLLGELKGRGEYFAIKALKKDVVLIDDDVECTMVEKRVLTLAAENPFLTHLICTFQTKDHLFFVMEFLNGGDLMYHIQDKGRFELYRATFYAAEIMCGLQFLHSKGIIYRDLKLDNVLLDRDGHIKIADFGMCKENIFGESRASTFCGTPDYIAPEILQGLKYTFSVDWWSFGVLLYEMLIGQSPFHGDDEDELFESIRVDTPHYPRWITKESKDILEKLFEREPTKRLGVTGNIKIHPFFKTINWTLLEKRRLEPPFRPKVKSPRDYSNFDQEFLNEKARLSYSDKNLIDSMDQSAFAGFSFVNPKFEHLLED

[16] = test system: B cell receptor (BCR) mediated phosphorylation cascade in murine B cells; assay: Murine B Cell Assay (phosphotyrosine blot after anti-IgM stimulation); type: cell-based; parameters: dose or concentration left out as unconfirmed; conditions: 30 minutes, anti-IgM cross linked murine B cells
Description: Murine B Cell Assay: Splenic lymphocytes were isolated from 6-20 week old Balb/c or C57/B6 mice. The cells were washed out of the spleen into RPMI media containing 1 mg/mL DNase in and the red blood cells were lysed in 17 mM tris-ammonium chloride, pH 7.2, Approximately 4×10^6 cells were incubated at 37° C. for 30 minutes with […] of 3 g or 2 in 1.1% DMSO. B cell stimulation was initiated by the addition of 2 mg of goat anti-mouse IgM (Jackson Immuno Research, cat# 115-005-075) and subsequent incubation for 5 minutes at 37(C. The cells were isolated by centrifugation (13,000 rpm, 2 min) and lysed (lysis buffer: 1% Triton X-100, 50 mM tris pH 7.4, 2 mM EDTA, 150 mM NaCl, […] PMSF, 2 mM sodium orthovanadate, 10 mg/mL leupeptin, 10 mg/mL apoprotin). The cellular debris was then pelleted at 13,000 rpm for 15 min. Cellular proteins were separated by 10% polyacrylamide gel electrophoresis and transferred to a nitrocellulose membrane by Western blotting. Phosphotyrosine containing proteins were visualized by immunoblotting with anti-phosphotyrosine antibody (Upstate Biotechnology, Inc.).

[17] = GST-XD4, 1 mM RR-Src, 37° C., pH 8.0

O=P(O)(O)OP(=O)(O)OP(=O)(O)OC[C@H]1O[C@@H](n2cnc3c(NC4CCCC4)ncnc32)[C@H](O)[C@@H]1O [ATP analog 8, N^6(cyclopentyl)ATP]
use as phosphodonor for autophosphorylation [1]: efficiently autophosphorylated | radiolabeled phosphoproteins in cell lysate [2]: no radiolabeled phosphoproteins in the cell lysate | use as phosphodonor for autophosphorylation [3]: apparent complete inability of GST-XD4 to use this analog as a phosphodonor for autophosphorylation | ability to serve as cellular protein tyrosine kinase substrate (level of protein tyrosine phosphorylation) [4]: slightly lower level of phosphorylation with wild-type kinase | phosphorylation of RR-Src peptide with the nucleotide as phosphate donor [5]: displayed Michaelis-Menten kinetics | Ki [6]: 2000 µM | phosphorylation of RR-Src peptide with the nucleotide as phosphate donor ([6]; wild-type GST-XD4): did not substantially phosphorylate the RR-Src peptiide | inhibition of GST-XD4(V323A, I338A) catalyzed RR-Src phosphorylation [7]: almost as well as the wild-type kinase, GST-XD4, is inhibited by its natural substrate ATP

Nc1ncnc2c1ncn2[C@@H]1O[C@H](COP(=O)(O)OP(=O)(O)OP(=O)(O)O)[C@@H](O)[C@H]1O [ATP, adenosine triphosphate]
reduction in binding affinity for ATP relative to wild-type Cdc28 [8]: 10 fold | reduction in maximum ATP turnover rate relative to wild-type Cdc28 [8]: 6 fold | Km [9]: 2600 ± 900 µM | Km [6, 17]: 12 ± 3 µM | kcat [6, 17]: 0.033 ± 0.0083 s⁻¹

CC(C)(C)n1nc(-c2ccccc2)c2c(NC(=O)c3ccccc3)ncnc21 [Compound 3e, 4-benzamido-1-tert-butyl-3-phenylpyrazolo[3,4-d]pyrimidine]
IC50 [10]: > 400 µM

CC(C)(C)c1ccc(C(=O)Nc2ncnc3c2c(-c2ccccc2)nn3C(C)(C)C)cc1 [Compound 3g, 4-(p-tert-butyl)benzamido-1-tert-butyl-3-phenylpyrazolo[3,4-d]pyrimidine]
tyrosine phosphorylation [11]: but not WT v-Src transformed NIH3T3 fibroblasts; also recorded: causes no loss of tyrosine phosphorylation | inhibition of PKA [12]: not detectably inhibited | mode of inhibition of I338G v-Src ([13]; Lineweaver-Burk analysis): competitively with respect to ATP | Ki ([13]; Lineweaver-Burk analysis at various ATP concentrations, read-out: inhibitory constant (Ki), I338G v-Src): ~0.4 µM | cell morphology and polymerized actin [14]: appeared flat and did not exhibit growth characteristics of transformed cells; also recorded: have defined polymerized actin strings | inhibition of PKCd [15]: not detectably inhibited | phosphotyrosine pattern of B cell stimulation [16]: no effect on the phosphotyrosine pattern of B cell stimulation
